Data published in patent US7968098B2, “HLA-A24-binding KIF-derived peptide” (Kurume University, priority 2006, dated 2011).
Where two headings read alike, the source gives them in different places.

Assays:
[1] = test system: anti-peptide immunoglobulin G (IgG) in plasma; experiment: Anti-peptide IgG in plasma measured by the Luminex system; type: binding, human; details: for Positive cases/total cases, Patients: Table 3, IgGs reactive to peptide in plasma of glioma patients; for Positive cases/total cases, Healthy donors: Table 3, IgGs reactive to peptide in plasma of healthy donors; for Positive cases/total cases, Total: Table 3, patients plus healthy donors; for Total (IgG-positive cases/total cases): positive = >1.25 times no peptide control; for Recognition by IgGs in the plasma compared with the other peptides: plasma of glioma patients and healthy donors
Method: The levels of anti-peptide immunoglobulin G (IgG) were measured by the Luminex™ system as previously reported (Komatsu N et al, Scand J Clin Invest 2004; 64: 1-11). In brief, plasma was incubated with 25 μl of peptide-coupled color-coded beads (Luminex Corp., Austin, Tex., USA) for 2 h at room temperature on a plate shaker. After incubation, the mixture was washed with a vacuum manifold apparatus and incubated with 100 μl of biotinylated goat anti-human IgG (BA-3080, Vector Laboratories, Burlingame, Calif., USA) for 1 h at room temperature. The plate was then washed, and 100 μl of streptavidin-PE (S-866, Molecular Probes, Eugene, Oreg., USA) was added to each well and was incubated for 30 min at room temperature on a plate shaker. The bound beads were washed three times followed by the addition of 100 μl of Tween-PBS to each well. Fifty μl of each sample was then examined using the Luminex™ system.
Next, the abilities of the KIF-derived peptides to be recognized by IgGs of glioma patients were examined, because IgGs reactive to CTL-directed peptides are detectable in the plasma of patients with different types of cancer (Nakatsura T et al, Eur J Immunol 32: 826-836, 2002), along with that levels of IgG well correlated with clinical responses of patients who received peptide vaccination as reported previously (Mine T et al, Clin Cancer Res 10: 929-937, 2004; Yajima N et al, Clin Cancer Res 11: 5900-5911, 2005). IgGs reactive to a corresponding peptide were judged to be significant when the immunofluorescence intensity in 1:100-diluted plasma exceeded 1.25 times that of the control samples with no peptides. […] Based on these findings, these 8 KIF peptides (3 for KIF1C, 3 for KIF3C, and 2 for KIF21B) were the focus of the following experiments.

[2] = test system: PBMCs of HLA-A24+ glioma patients; type: cell-based, human; details: for Total (patients with induction of peptide-reactive CTLs): HLA-A24+ glioma patients, positive = P<0.05 and >100 pg/ml IFN-γ over HIV peptide; for IFN-γ: vs HIV peptide
[3] = PBMCs of HLA-A24+ glioma Patient 1, 10 μg/ml peptide
[4] = PBMCs of HLA-A24+ glioma Patient 2, 10 μg/ml peptide
[5] = PBMCs of HLA-A24+ glioma Patient 3, 10 μg/ml peptide
[6] = PBMCs of HLA-A24+ glioma Patient 7, 10 μg/ml peptide
[7] = PBMCs of HLA-A24+ glioma Patient 9, 10 μg/ml peptide
[8] = PBMCs of HLA-A24+ glioma Patient 10, 10 μg/ml peptide

AFIPGRPML (KIF21B 670-678 peptide)
Positive cases/total cases, Patients [1]: 2/10
Positive cases/total cases, Healthy donors [1]: 2/10
Positive cases/total cases, Total [1]: 4/20

AFIPGRPMLL (KIF21B 670-679 peptide)
Positive cases/total cases, Patients [1]: 2/10
Positive cases/total cases, Healthy donors [1]: 2/10
Positive cases/total cases, Total [1]: 4/20

CYEVALADF (KIF1C 756-764 peptide)
Immunofluoresence intensity ([1]; Healthy donor 1, 1:100-diluted plasma): 87.3
Immunofluoresence intensity ([1]; Healthy donor 2, 1:100-diluted plasma): 14.0
Immunofluoresence intensity ([1]; Healthy donor 3, 1:100-diluted plasma): 46.8
Immunofluoresence intensity ([1]; Healthy donor 4, 1:100-diluted plasma): 20.0
Immunofluoresence intensity ([1]; Healthy donor 5, 1:100-diluted plasma): 40.3
Immunofluoresence intensity ([1]; Healthy donor 6, 1:100-diluted plasma): 47.5
Immunofluoresence intensity ([1]; Healthy donor 7, 1:100-diluted plasma): 196.0
Immunofluoresence intensity ([1]; Healthy donor 8, 1:100-diluted plasma): 3893.5
Immunofluoresence intensity ([1]; Healthy donor 9, 1:100-diluted plasma): 27.0
Total (IgG-positive cases/total cases) ([1]; Table 2, glioma patients): 0/10
Total (IgG-positive cases/total cases) ([1]; Table 2, healthy donors): 1/10
Positive cases/total cases, Patients [1]: 0/10
Positive cases/total cases, Healthy donors [1]: 1/10
Positive cases/total cases, Total [1]: 1/20
Immunofluoresence intensity ([1]; glioma Patient 1, 1:100-diluted plasma): 36.5
Immunofluoresence intensity ([1]; glioma Patient 2, 1:100-diluted plasma): 45.0
Immunofluoresence intensity ([1]; glioma Patient 3, 1:100-diluted plasma): 28.8
Immunofluoresence intensity ([1]; glioma Patient 4, 1:100-diluted plasma): 11.5
Immunofluoresence intensity ([1]; glioma Patient 5, 1:100-diluted plasma): 58.0
Immunofluoresence intensity ([1]; glioma Patient 6, 1:100-diluted plasma): 185.8
Immunofluoresence intensity ([1]; glioma Patient 7, 1:100-diluted plasma): 40.3
Immunofluoresence intensity ([1]; glioma Patient 8, 1:100-diluted plasma): 6.5
Immunofluoresence intensity ([1]; glioma Patient 9, 1:100-diluted plasma): 7.5
Immunofluoresence intensity ([1]; glioma Patient 10, 1:100-diluted plasma): 658.0

EYIRVRQDL (KIF3C 607-615 peptide)
Positive cases/total cases, Patients [1]: 2/10
Positive cases/total cases, Healthy donors [1]: 3/10
Positive cases/total cases, Total [1]: 5/20

GYASTDEEI (KIF21B 220-228 peptide)
Positive cases/total cases, Patients [1]: 2/10
Positive cases/total cases, Healthy donors [1]: 3/10
Positive cases/total cases, Total [1]: 5/20
Recognition by IgGs in the plasma compared with the other peptides [1]: more frequently
Total (patients with induction of peptide-reactive CTLs) [2]: 4/10
IFN-γ [2, 3]: 0 pg/mL
IFN-γ [2, 4]: 29 pg/mL
IFN-γ [2, 5]: 56 pg/mL
IFN-γ [2, 6]: 51 pg/mL
IFN-γ [2, 7]: 0 pg/mL
IFN-γ [2, 8]: 0 pg/mL

GYLIIENFI (KIF3C 629-637 peptide)
Positive cases/total cases, Patients [1]: 0/10
Positive cases/total cases, Healthy donors [1]: 1/10
Positive cases/total cases, Total [1]: 1/20

HYDGIECLAI (KIF21B 621-630 peptide)
Positive cases/total cases, Patients [1]: 2/10
Positive cases/total cases, Healthy donors [1]: 5/10
Positive cases/total cases, Total [1]: 7/20
Recognition by IgGs in the plasma compared with the other peptides [1]: more frequently
Total (patients with induction of peptide-reactive CTLs) [2]: 3/10
IFN-γ [2, 3]: 0 pg/mL
IFN-γ [2, 4]: 10 pg/mL
IFN-γ [2, 5]: 0 pg/mL
IFN-γ ([2]; PBMCs of HLA-A24+ glioma Patient 4, 10 μg/ml peptide): 0 pg/mL
IFN-γ [2, 6]: 93 pg/mL
IFN-γ [2, 7]: 0 pg/mL
IFN-γ [2, 8]: 0 pg/mL

IYQEEIRDL (KIF3C 147-155 peptide)
Positive cases/total cases, Patients [1]: 0/10
Positive cases/total cases, Healthy donors [1]: 1/10
Positive cases/total cases, Total [1]: 1/20

IYQEEIRDLL (KIF3C 147-156 peptide)
Positive cases/total cases, Patients [1]: 0/10
Positive cases/total cases, Healthy donors [1]: 1/10
Positive cases/total cases, Total [1]: 1/20

KYCSHSGLVF (KIF21B 473-482 peptide)
Positive cases/total cases, Patients [1]: 2/10
Positive cases/total cases, Healthy donors [1]: 2/10
Positive cases/total cases, Total [1]: 4/20
